According to US20260294864A1, “PHARMACEUTICAL COMPOSITION FOR THE TREATMENT AND PREVENTION OF HPV” (NP1 SRL, priority 2022, published 2026):

Columns and labels:
Assay type in all cases: cell-based, human
HeLa cells = experiment: Anti-clonogenic activity on HeLa cells (plating efficiency assay / live cell imaging); settings: HeLa; for Anti-clonal effect / end point clonal assay, clonal inhibition alone: 50 μM; for Anti-clonal effect: isolated, FIG. 1; for clonal inhibition in combination with Apigenin: 50 μM combined with Apigenin 25 μM; for clonal inhibition in combination with Apigenin / end point clonal assay, clonal inhibition alone: FIG. 9-11; for clonal inhibition in combination with Chrysin: 50 μM combined with Chrysin 25 μM; for clonal inhibition in combination with Chrysin / synergy with Galangine, Apigenin and Chrysin: FIG. 10-11; for end point clonal assay, clonal inhibition alone: administered alone
Description: Panel C and D: diagrammatic topographical maps of treatments and growth conditions on plates A and B respectively.
Panel A. Hela cells were challenged with serial twofold dilutions of 50 μM Luteolin (in columns 1-6) and 100 μM Galangin (columns 7-10). Hela control untreated cells in columns 11-12.
(§1) A total of 6 cell lines, outlined in Table 3, were used for this study. The cell lines were obtained from Research Centres of cell biology in Italy, United Kingdom and Germany. This research raised no ethical concern being based on entirely in vitro experiments using no patients' derived information or material. In compliance with National and International ethical rules, no informed consent is needed.
(§2) HeLa cells are the oldest continuous cell lines and were originally derived from a HPV18 positive metastatic cervical carcinoma (Scherer W F et al 1953). Siha cells are an epithelioid like cell line derived from a HPV16-positive invasive cervical squamous carcinoma (Friedel F et al 1970). Ca-Ski cells are a line harboring multiple copy of transcriptionally active HPV16 genomes (Baker C C et al 1984). Both Hela and Siha were a kind gift of prof MS Campo, The Beatson Institute for Cancer Research, Glasgow, Scotland. These two cell lines because of their versatility and ease of use were used for most of experiments reported. Ca-Ski cells were obtained through the courtesy of prof. Matthias Durst, at the Deutsch Krebsforschungzentrum—Heidelberg, FRG. These cells used together with Siha provide a model for the genetic instability and variability of cervical cancers. HK-168 is an immortalized, non-tumorigenic, continuous cell line derived from human skin keratinocytes in vitro transformed with whole HPV16 genome (De Marco F et al 2007). This cell line is reputed to recapitulate le biological features of transformed dysplastic cells and was used in preliminary experiments to set the experimental dosages and conditions. The ME-180 cells are a cell line harboring a few, transcriptionally active, copies of HPV68 and provide an in vitro model for dysplastic/neoplastic lesions induced by HPV with Intermediate oncogenic Risk (Yee C C et al 1985). The HaCaT cells, derived from a solar skin lesion by Petra Boukamp et al (1988) are here used as an in vitro equivalent of Ultra-Violet induced pre-neoplastic epithelial cells to rule out possible direct toxic effects of polyphenols. Both HaCaT and ME-180, were kindly donated by Prof. Matthias Durst. Hela, Siha, Ca-Ski, ME-180 and HaCaT were all grown in high glucose DMEM supplemented with 10% fetal calf serum (FCS). The HK-168 cells, which retained the ability to terminally differentiate under high Ca^2+ and FCS concentrations, were grown in K-SFM, a chemically defined medium supplemented with human EGF and bovine pituitary extract (ThermoFisher Scientific, Life Technologies, Monza—MI). Each cell line was sub-cultured twice a week at the appropriate split ratio according to the specific proliferative index. In no case antibiotics or antimycotics were added to the culture media. For the present study, all cell lines were retrieved from an in-house cell archive facility.
The anti-clonogenic activity was evaluated both by the current standard qualitative plating efficiency assay and by quantitative live cell imaging analysis ([…] S3 Live Cell Analysis Imaging System—Sartorius Welwyn Garden City, Hertfordshire, UK).

Siha cells [1] = experiment: Anti-clonogenic activity on SiHa cells (plating efficiency assay / live cell imaging); settings: alone
Description: In this experiment Kaempferol and Apigenin were administered to Siha cells at decremental concentrations, either in combination or alone, as shown in the topographical map (in panel C). […] Histograms in Panel B depict the number of colonies per well as evaluated by visual inspection and count.
The Histograms in Panel B depict the number of colonies per well as evaluated by visual inspection and count. • In Panel C a topographical map of plate treatments. Each condition was assayed in duplicate.
Kaempferol, Galangin, Luteolin and their combination were administered to SiHa cells at the concentrations of 25 μM each and of 12,5/12,5/6,25 μM for their combination. Treatments were allowed to stay on cells either for 2 or 4/8/16/24 hours. After that, treatments were washed out, cells washed two times with PBS, replenished with fresh medium and the anti-clonal effect was then monitored by live cell image analysis.
as §1, §2

Siha cells [2] = experiment: Antiproliferative effect on Siha cells, live cell analysis; settings: Siha 1000 cells/well
Description: FIG. 2: live cell analysis of RNPs antiproliferative effect. Siha cells were seeded at 1000 cells/well in a 96 well plate and allowed to adhere overnight. The plate was then washed twice with PBS and replenished with 100 microliter/well fresh medium plus 50 μM of each compound. Images were taken every 12 hours; Growth curves were drawn plotting the percentage of confluence versus time. […] In fact, their growth curves outline a single spindle completely overlapping and masking the one of control untreated cells. Conversely, a distinct anti-proliferative effect is evident in panel B- where the growth curves of RNP 9 Kaempferol (solid squares), RNP 12 Luteolin (solid diamonds), RNP 16 Apigenin (solid circles) and control untreated cells (solid stars) are depicted. […] Each point represents the mean of six independent replicas. Bar width represents the Standard Deviation (SD). Consistent results were also obtained by HeLa and ME-180 cells
For antiproliferative effect cells were seeded in 96-well microplates at 1000 cells/per well (i.e.: 30 cell/mm^2), a density allowing exponential growth rate for the subsequent 8-day incubation. After overnight adhesion cell monolayers were washed and replenished with fresh media with different testing molecules, plain medium served as cell growth control.
Cell growth was then monitored by automated INCUCTE S3 imaging Systems. Images were acquired at 12-hours intervals. The analysis parameters were as follows: segmentation adjustment=0.9; hole fill <7,000 μm^2; adjusted pixel=0.
Data for growth curves, anti-clonal and Antiproliferative assays were obtained from at least three independent experiments. Each data point of quantitative anti-proliferative or anti-clonal experiments represents the mean (±SD) of eight independent replicates. Data were analyzed and plotted using Prism 6.0 software (GraphPad Software, San Diego, CA).

HPV transformed cells = experiment: Anti-clonal effect on HPV transformed cells (cell line not stated); settings: for IC50: Homo sapiens, minimal concentration reducing 50% of CFU of treated versus control, read-out: CID50 (50% clonal inhibitory dose), isolated polyphenols; for IC50 / IRR (inhibitory relative rate) / anticlonogenic / anti-clonal effect: isolated compound; for IRR (inhibitory relative rate): reverse ratio of CID50 to the reference CID50 of Quercetin (=1); for anticlonogenic / anti-clonal effect / clonal inhibition in combination: summary statement
Description: The inhibitory relative rate (IRR) (fourth column) provides an efficacy ranking of molecules.
The anti-clonogenic activity was evaluated both by the current standard qualitative plating efficiency assay and by quantitative live cell imaging analysis (INCUCYTE S3 Live Cell Analysis Imaging System—Sartorius Welwyn Garden City, Hertfordshire, UK). For qualitative plating efficiency assay cells were seeded at ‘clonal’ density (i.e., 0.5 cell/mm^2) either in medium containing the testing molecules or with plain medium and incubated without any further manipulation. After 9-14 days, according to the cell line specific proliferative index, the cultures were decanted and stained with 0.2% CV/methanol for 5 min at room temperature. All conditions were tested in triplicates in a 6-well culture plate. The anti-clonogenic activity of the treatments was evaluated using the colony forming units (CFU) of treated versus control cultures. The minimal concentration which could reduce 50% of the CFU of treated versus control culture was defined as colony-forming Inhibitory concentration (CID50). For quantitative evaluation cells were seeded in 96-well microplates at the above density and condition and allowed to grow the subsequent 8-day incubation in the INCUCYTE S3 Imaging System. Images were acquired at 12-hours intervals and colony formation and percentage of growth area covered (confluency) were then monitored through automated image analysis. The analysis parameters were as follows: segmentation adjustment=0.4; hole fill <5,000 μm^2; adjusted pixel=−2.

[3] = 50 μM combined with Galangin 25 μM, FIG. 11
[4] = combined with Galangin, Chrysin or Apigenin

`O=c1cc(-c2ccc(O)cc2)oc2cc(O)cc(O)c12` [Apigenin] was tested, and the Anti-clonal effect (HeLa cells) was “almost complete suppression of clonal activity”, the “clonal efficiency versus control untreated cells” value (Siha cells [1]; 12.5 μM, Siha, FIG. 4) was “no difference to control untreated cells” and the “end-point anti-clonal effect versus control untreated cells” value (Siha cells [1]; 25.0 μM, SiHa, FIG. 6-8) was “no difference to control untreated cells”. For the same compound, the antiproliferative effect (Siha cells [2]; 50 μM, FIG. 2) was “distinct, although milder effect”, the inhibition at 50 µM (Siha cells [2]; Homo sapiens, FIG. 2, read-out: suppression of proliferation) was about 20% and the IC50 (HPV transformed cells) was 25 µM. The “IRR (inhibitory relative rate)” value (HPV transformed cells) was 2 and the “anticlonogenic / anti-clonal effect” value (HPV transformed cells) was “fair anti-clonal effect, although milder”.
With `O=C(O)c1ccccc1` [Benzoic acid] the “clonal inhibition in combination with Apigenin” value (HeLa cells) was “almost complete clonal inhibition”, the “clonal inhibition in combination with Chrysin” value (HeLa cells) was “almost complete clonal inhibition” and the “clonal inhibition in combination with Galangin” value (HeLa cells; [3]) was “almost complete clonal inhibition”. For the same compound, the “end point clonal assay, clonal inhibition alone” value (HeLa cells) was “neither of them induced any effect”, the Anti-clonal effect (HeLa cells) was “devoid of any significant anticlonogenic effect” and the “synergy with Galangine, Apigenin and Chrysin” value (“synergy with Galangine” below) (HeLa cells; in association) was “synergize”. For the same compound, the “clonal inhibition in combination” value (HPV transformed cells; [4]) was “a certain grade of clonal inhibition” and the “anticlonogenic / anti-clonal effect” value (HPV transformed cells) was “devoid of. any direct anticlonogenic activity”.
In the case of `O=C(/C=C/c1ccc(O)c(O)c1)O[C@@H]1C[C@](O)(C(=O)O)C[C@@H](O)[C@H]1O` [Chlorogenic acid], the “clonal inhibition in combination with Apigenin” value (HeLa cells) is reported as “almost complete clonal inhibition”, the “clonal inhibition in combination with Chrysin” value (HeLa cells) is reported as “almost complete clonal inhibition” and the “clonal inhibition in combination with Galangin” value (HeLa cells; [3]) is reported as “almost complete clonal inhibition”. For the same compound, the “end point clonal assay, clonal inhibition alone” value (HeLa cells) was “neither of them induced any effect”, the Anti-clonal effect (HeLa cells) was “devoid of any significant anticlonogenic effect” and the “synergy with Galangine” value (HeLa cells; in association) was “synergize”. The “clonal inhibition in combination” value (HPV transformed cells; [4]) was “a certain grade of clonal inhibition” and the “anticlonogenic / anti-clonal effect” value (HPV transformed cells) was “devoid of. any direct anticlonogenic activity”.
`O=c1cc(-c2ccccc2)oc2cc(O)cc(O)c12` [Chrysin] was tested, and the Anti-clonal effect (HeLa cells) was “almost complete suppression of clonal activity”, the IC50 (HPV transformed cells) was 25 µM and the “IRR (inhibitory relative rate)” value (HPV transformed cells) was 2. The “anticlonogenic / anti-clonal effect” value (HPV transformed cells) was “fair anti-clonal effect, although milder”.
`O=C1c2c(O)cc(O)cc2O[C@H](c2ccccc2)[C@H]1O` [Pinobanksin] was tested, and the Anti-clonal effect (HeLa cells) was “No effect”.
For `O=C1C[C@@H](c2ccccc2)Oc2cc(O)cc(O)c21` [Pinocembrin], the Anti-clonal effect (HeLa cells) was “devoid of any significant anticlonogenic effect”.
`O=C(O)c1ccc(O)c(O)c1` [Protocatechuic acid] was tested, and the “clonal inhibition in combination with Apigenin” value (HeLa cells) was “almost complete clonal inhibition”, the “clonal inhibition in combination with Chrysin” value (HeLa cells) was “almost complete clonal inhibition” and the “clonal inhibition in combination with Galangin” value (HeLa cells; [3]) was “almost complete clonal inhibition”. For the same compound, the “end point clonal assay, clonal inhibition alone” value (HeLa cells) was “neither of them induced any effect”, the Anti-clonal effect (HeLa cells) was “devoid of any significant anticlonogenic effect” and the “synergy with Galangine” value (HeLa cells; in association) was “synergize”. The “clonal inhibition in combination” value (HPV transformed cells; [4]) was “a certain grade of clonal inhibition” and the “anticlonogenic / anti-clonal effect” value (HPV transformed cells) was “devoid of. any direct anticlonogenic activity”.
With `O=c1c(O)c(-c2ccc(O)c(O)c2)oc2cc(O)cc(O)c12` [Quercetin] the Anti-clonal effect (HeLa cells) was “almost complete suppression of clonal activity”, the IC50 (HPV transformed cells) was 50 µM and the “anticlonogenic / anti-clonal effect” value (HPV transformed cells) was “fair anti-clonal effect, although milder”.
With `C[C@@H]1O[C@@H](OC[C@H]2O[C@@H](Oc3c(-c4ccc(O)c(O)c4)oc4cc(O)cc(O)c4c3=O)[C@H](O)[C@@H](O)[C@@H]2O)[C@H](O)[C@H](O)[C@H]1O` [Rutin] the Anti-clonal effect (HeLa cells) was “No effect”.
With `COc1cc(C(=O)O)ccc1O` [Vanillic acid] the “clonal inhibition in combination with Apigenin” value (HeLa cells) was “almost complete clonal inhibition”, the “clonal inhibition in combination with Galangin” value (HeLa cells; 50 μM combined with Galangin 12.5 μM, FIG. 9-10) was “almost complete clonal inhibition” and the “end point clonal assay, clonal inhibition alone” value (HeLa cells) was “neither of them induced any effect”. For the same compound, the Anti-clonal effect (HeLa cells) was “devoid of any significant anticlonogenic effect”, the “synergistic effect with Galangine and Apigenin” value (HeLa cells; in association, FIG. 9) was “synergistic effect” and the “clonal inhibition in combination” value (HPV transformed cells; combined with Galangin or Quercetin) was “a certain grade of clonal inhibition”. The “anticlonogenic / anti-clonal effect” value (HPV transformed cells) was “devoid of any direct activity” and the “anticlonogenic / anti-clonal effect” value (HPV transformed cells; listed as Vanillic) was “devoid of. any direct anticlonogenic activity”.
